Results on 3 compounds are retold here after US20230303564A1, “PYRIMIDINE RING COMPOUND” (MEDSHINE DISCOVERY INC., priority 2020, published 2023).

Assay [1] concerns the target CDK6/CyclinD1 (Homo sapiens (Human), UniProt Q00534). The assay is described as follows: CDK6/CyclinD1 enzyme activity test (LANCE Ultra TR-FRET). The conditions noted are these: 250 μM ATP, 25° C. 120 minutes, read-out: CDK6/Cyclin D1 IC50. It is filed as biochemical. The method, then:
CDK6/CyclinD1 Enzyme Reaction System
Preparation of Kinase Buffer:
The composition of the buffer: 50 mM of hydroxyethylpiperazine ethanesulfonic acid solution at pH 7.5, 1 mM of ethylenediaminetetraacetic acid, 10 mM of magnesium chloride, 0.01% Brij-35, and 2 mM of dithiothreitol.
Enzymes, substrate LANCE Ultra ULight™-4E-BP-1(Thr37146) Peptide, ATP, and inhibitors were diluted by kinase buffer.
The compounds to be tested were diluted 5-fold with a multi-channel pipette to the eighth concentration, that is, from 40 μM to 0.512 nM, the concentration of DMSO was 4%, and a double-hole experiment was set up. […] The reaction system was reacted at 25° C. for 120 minutes. After the reaction, 5 μL mixture of EDTA and 2× LANCE™ Detection Buffer (1:1) were added to each well, the reaction was carried out at 25° C. for 5 minutes, after the reaction was completed, 5 μL of LANCE Ultra Eu-anti-P-4E-BP1(Thr37MS) (4 nM) was added to each well, the reaction was carried out at 25° C. for 60 minutes, the reaction signal was detected by Nivo instrument according to the principle of time-resolved fluorescence resonance energy transfer.
(§1) The equation (Sample−Min)/(Max−Min)*100% was used to convert the raw data into inhibition rate, and the value of IC50 can be obtained by curve fitting with four parameters (obtained by log (inhibitor) vs. response-Variable slope mode in GraphPad Prism). The enzymatic inhibitory activity of the compounds of the present disclosure on CDK1/CyclinB1, CDK2/CyclinA2, CDK2/CyclinE1, CDK4/CyclinD1, CDK6/CyclinD1, CDK7/CyclinH/MAT1, CDK9/CyclinT1 was provided in Table 1.

For assay [2], the target named is CDK9/CyclinT1 (Homo sapiens (Human), UniProt P50750). The assay is described as follows: CDK9/CyclinT1 enzyme activity test (ADP-Glo). The conditions noted are these: 100 μM ATP, 25° C. 120 minutes, read-out: CDK 9/Cyclin T1 IC50. In kind it is biochemical. As to the method: CDK9/CyclinT1 Enzyme Reaction System
Enzymes, substrates, ATP, and inhibitors were diluted by kinase buffer in the kit. The compounds to be tested were diluted 5-fold with a multi-channel pipette to the eighth concentration, that is, from 50 μM to 0.65 nM, the concentration of DMSO was 5%, and a double-hole experiment was set up. 1 μL of each concentration gradient of inhibitors, 2 μL of CDK9/CyclinT1 enzyme (4 ng), 2 μL mixture of substrate and ATP (100 μM ATP, 0.2 μg/μL substrate) were added to the microplates, and the final concentration gradient of the compound was 10 μM to 0.13 nM. The reaction system was reacted at 25° C. for 120 minutes. After the reaction, 5 μL of ADP-Glo reagent was added to each well, the reaction was carried out at 25° C. for 40 minutes, after the reaction was completed, 10 μL of kinase detection reagent was added to each well, the reaction was carried out at 25° C. for 30 minutes, the multiple label analyzer was used to read the chemiluminescence with an integration time of 0.5 seconds.
as §1
In general terms: ADP-Glo first removes unused ATP, then detects ADP through luciferase.

Assay [3] relates to OVCAR-3 cells. As to the kind of experiment: Cell activity test, anti-proliferation (CellTiter Glo), OVCAR-3. It is filed as cell-based, human. Particulars: OVCAR-3, 7 days of culture. As to the method:
2) Day 1: Laying Cell Plates
(6) 0.7 mL of cell suspension was pipetted into the counting cup, the cells were counted on ViCell XR, and the cell suspension was diluted separately with culture medium to the required cell concentration for laying cell plates: 1000/30 ul.
(7) Microplates (2 plates) were required, 100 uL of phosphate buffered saline was added to the peripheral wells of the 384-well plate, 30 uL of cell suspension was added to the other wells, and the cell plate was placed into incubator for culture.
(1) Compound preparation: the stock solution of the compound to be tested was 10 mM.
(2) The compound to be tested was diluted 3 times with DMSO for 10 gradients.
(2) The compound to be tested was diluted with culture medium, and the highest final concentration was 10 μM.
(4) 10 μL of the compound was pipetted into the 384-well plate, and then the cell plate was placed back into the incubator for culture.
4) Adding CTG and Reading the Plate
(1) After 7 days of culture, 50 ul CellTiter Glo was added to the cell plate, shaken for 10 minutes in the dark, and left at room temperature for 5 minutes.
(2) The plate was read on Envision with the program: US LUM 384 (CPS). The experiment was originally stored in the personal disk:
1. The mean and standard deviation of 0% inhibition (DMSO row, ZPE) and 100% inhibition (PBS row, HPE) were calculated;
2. Inhibition rate (%)=(1−(sample value-average value of 100% inhibition)/(average value of 0% inhibition-average value of 100% inhibition))*100;
3. The curve was fitted by GraphPad 8.0 software;
For orientation: In ATP-based viability assays light output follows the ATP content of the culture.

Assay [4] deals with human ovarian cancer OVCAR-3 cells subcutaneous xenograft tumor. As to the kind of experiment: In vivo efficacy study, OVCAR-3 subcutaneous xenograft tumor BALB/c nude mouse model. Particulars: for Tumor volume (Day 0): Day 0 (at grouping), OVCAR-3 xenograft, BALB/c nude mice; for Tumor volume (Day 7): 10 mg/kg from day 0 to day 7; for Tumor volume (Day 14): 10 mg/kg from day 0 to day 14; for Tumor volume (Day 21): 10 mg/kg day 0 to day 14, 30 mg/kg from day 14 to day 21. As to the method: In vivo efficacy study of human ovarian cancer OVCAR-3 cells subcutaneous xenograft tumor BALB/c nude mouse model
Cell culture: Human ovarian cancer OVCAR-3 cells were monolayer cultured in vitro, the culture conditions were 10% fetal bovine serum, 100 U/mL Penicillin and 100 μg/mL Streptomycin were added in RPMI 1640 medium, cultured at 37° C. 5% CO2 incubator. Conventional digestion with trypsin-EDTA was performed for passage. When the cell saturation was 80%/90% and the number reached the required level, the cells were collected, counted, and inoculated.
Animals: BALB/c nude mice, female, 6-8 weeks old, weighed 18-22 grams. A total of 95 (42+ additional 53) animals were needed, provided by the Experimental Animal Management Department of Shanghai Institute of Family Planning Sciences (formerly Shanghai Sipulbichem).
Tumor inoculation: 0.2 mL (1×10^7) OVCAR-3 cells (with matrix glue, volume ratio of 1:1) were subcutaneously inoculated on the right back of each mouse, and the mice were grouped administrated when the average tumor volume reached about 150 mm^3.
Dosage and frequency of administration: Day 0 to Day 7, 10 mg/kg; Day 7 to Day 14, 10 mg/kg; Day 14 to Day 21, 30 mg/kg;
Experimental index: The experimental index was used to examine whether tumor growth was inhibited, delayed or cured. Tumor diameters were measured with vernier calipers twice a week. The calculation formula of tumor volume was: V=0.5a×b^2, wherein a and b represented the long and short diameters of the tumor, respectively.

The structures appear in SMILES notation.

Sequence of CDK9/CyclinT1 (P50750 whole entry): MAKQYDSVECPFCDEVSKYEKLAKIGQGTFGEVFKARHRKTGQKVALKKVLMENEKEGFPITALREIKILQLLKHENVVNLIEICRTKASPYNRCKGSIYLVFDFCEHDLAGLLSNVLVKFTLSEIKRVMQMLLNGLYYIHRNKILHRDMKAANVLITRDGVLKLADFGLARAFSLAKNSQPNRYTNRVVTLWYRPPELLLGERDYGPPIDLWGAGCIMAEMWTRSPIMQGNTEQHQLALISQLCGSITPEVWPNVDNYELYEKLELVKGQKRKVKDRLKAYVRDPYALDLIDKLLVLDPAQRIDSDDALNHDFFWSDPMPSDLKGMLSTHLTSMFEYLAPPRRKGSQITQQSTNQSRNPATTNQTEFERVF
Sequence of CDK9/CyclinT1 (O60563 whole entry partner): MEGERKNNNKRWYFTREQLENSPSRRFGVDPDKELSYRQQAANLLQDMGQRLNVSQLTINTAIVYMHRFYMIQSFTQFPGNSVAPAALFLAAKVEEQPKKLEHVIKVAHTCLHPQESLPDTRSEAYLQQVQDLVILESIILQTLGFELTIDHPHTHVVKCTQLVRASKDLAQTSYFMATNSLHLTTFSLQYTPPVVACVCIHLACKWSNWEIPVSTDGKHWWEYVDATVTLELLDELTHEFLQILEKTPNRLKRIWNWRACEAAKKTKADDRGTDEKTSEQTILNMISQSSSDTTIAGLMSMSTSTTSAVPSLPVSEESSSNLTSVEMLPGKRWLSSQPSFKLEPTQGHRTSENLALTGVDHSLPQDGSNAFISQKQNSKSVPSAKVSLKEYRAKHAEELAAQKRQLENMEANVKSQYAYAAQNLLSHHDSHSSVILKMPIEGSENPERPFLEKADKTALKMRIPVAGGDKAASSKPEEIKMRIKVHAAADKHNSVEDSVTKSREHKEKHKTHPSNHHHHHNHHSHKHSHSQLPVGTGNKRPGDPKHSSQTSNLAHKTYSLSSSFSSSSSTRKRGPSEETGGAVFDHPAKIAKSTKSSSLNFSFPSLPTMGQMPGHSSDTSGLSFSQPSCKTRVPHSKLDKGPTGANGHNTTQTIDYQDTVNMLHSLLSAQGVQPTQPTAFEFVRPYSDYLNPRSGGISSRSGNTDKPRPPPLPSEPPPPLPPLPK
Sequence of CDK6/CyclinD1 (Q00534 whole entry): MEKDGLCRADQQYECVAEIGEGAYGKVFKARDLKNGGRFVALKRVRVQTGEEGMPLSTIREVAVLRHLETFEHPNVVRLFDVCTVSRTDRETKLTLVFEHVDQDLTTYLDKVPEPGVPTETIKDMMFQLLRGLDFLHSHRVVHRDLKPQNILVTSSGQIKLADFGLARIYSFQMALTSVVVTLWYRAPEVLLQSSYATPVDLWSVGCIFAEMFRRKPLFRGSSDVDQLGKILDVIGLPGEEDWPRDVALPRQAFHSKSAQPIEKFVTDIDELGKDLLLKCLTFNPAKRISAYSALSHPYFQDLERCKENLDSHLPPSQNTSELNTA
Sequence of CDK6/CyclinD1 (P24385 whole entry partner): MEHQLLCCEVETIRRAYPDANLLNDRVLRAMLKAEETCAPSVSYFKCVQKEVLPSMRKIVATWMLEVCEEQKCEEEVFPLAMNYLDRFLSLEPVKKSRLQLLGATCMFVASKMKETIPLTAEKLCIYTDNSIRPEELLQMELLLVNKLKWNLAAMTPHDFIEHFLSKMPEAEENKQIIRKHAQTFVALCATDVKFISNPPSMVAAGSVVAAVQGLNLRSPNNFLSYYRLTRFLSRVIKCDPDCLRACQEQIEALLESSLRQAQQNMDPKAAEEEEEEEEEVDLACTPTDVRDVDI

For the compound `CS(=O)(=O)N1CCC(Nc2ncc3cc(C(F)F)nc(N[C@@H]4CCCC4(F)F)c3n2)CC1` (single isomer, unassigned) [Compound 22], the IC50 in assay [1] stood at 1.36 nM. In addition, the IC50 in assay [2] was 36.9 nM. The same compound came in with an IC50 in assay [3] of 44 nM. Further, in assay [4], the “Tumor volume (Day 0)” value is 151 mm^3, the “Tumor volume (Day 7)” value amounted to 243 mm^3, the “Tumor volume (Day 14)” value was found to be 319 mm^3 and the “Tumor volume (Day 21)” value turned out to be 238 mm^3.

Turning to `Cc1cn(C)nc1Nc1nc(C(F)F)cc2cnc(NC3CCN(S(C)(=O)=O)CC3)nc12` [Compound 19], the IC50 in assay [1] was 1.15 nM. Further, the IC50 in assay [2] came to 178 nM. The IC50 in assay [3] amounted to 29 nM. Further, in assay [4], the “Tumor volume (Day 0)” value is reported as 151 mm^3, the “Tumor volume (Day 7)” value came to 246 mm^3, the “Tumor volume (Day 14)” value is 375 mm^3 and the “Tumor volume (Day 21)” value was 392 mm^3.

For the compound `Cn1cc(Cl)c(Nc2nc(C(F)F)cc3cnc(NC4CCN(S(C)(=O)=O)CC4)nc23)n1` [Compound 20], the IC50 in assay [1] is 0.56 nM. In addition, the IC50 in assay [2] turned out to be 106 nM. In assay [3], this compound had an IC50 of 12 nM. In assay [4], the “Tumor volume (Day 0)” value was 151 mm^3, the “Tumor volume (Day 7)” value was 236 mm^3, the “Tumor volume (Day 14)” value was found to be 338 mm^3 and the “Tumor volume (Day 21)” value stood at 363 mm^3.
